According to patent US20220220145A1, “CYCLIC PHOSPHATE COMPOUNDS” (priority 2019, published 2022):

Assay: Tissue distribution following oral administration of reference compounds and the disclosed compounds
Type: in vivo
Conditions: rats; for levels of nucleoside phosphates in the liver compared to the reference compounds: oral administration, statement in words summarising Table 1
Description: The liver specificity of the disclosed compounds is compared relative to a corresponding active compound in liver and other organs that could be targets of toxicity.
Reference compounds and the cyclic phosphate compounds were administered at 5-50 mg/kg to fasted rats by oral gavage. Plasma concentrations of the metabolites, and parent compounds in circulation and in the hepatic portal vein were determined by HPLC-UV, and the liver, small intestine, and other organ concentrations were measured by LC-MS using standard chromatography methods.

| levels of nucleoside phosphates in the liver compared to the reference compounds | SMILES | NUCHPV: ratio of new compound vs corresponding reference compound in nucleoside level in hepatic portal vein (HPV) (one hour after oral administration at 5 mg/kg nucleoside equivalent dose, hepatic portal vein) | NMPliver: ratio of new compound vs corresponding reference compound in nucleoside monophosphate level in the liver (one hour after oral administration at 5 mg/kg nucleoside equivalent dose, liver) | NUCblood: ratio of new compound vs corresponding reference compound in nucleoside level in systemic blood (one hour after oral administration at 5 mg/kg nucleoside equivalent dose, systemic blood) |
| --- | --- | --- | --- | --- |
| – | [2H]C([2H])([2H])c1cn([C@H]2C[C@H](O)[C@@H](CO)O2)c(=O)[nH]c1=O [Thymidine-d3] | 1.0 | 1.0 | 1.0 |
| substantially higher levels | [2H]C([2H])([2H])c1cn([C@H]2C[C@@H]3OP(=O)(OCc4ccccc4C(=O)OCCC)OC[C@H]3O2)c(=O)[nH]c1=O (stereo partly drawn) [Compound 106, Propyl 2-((((4aR,6R,7aS)-6-(5-(methyl-d3)-2,4-dioxo-3,4-dihydropyrimidin-1(2H)-yl)-2-oxidotetrahydro-4H-furo[3,2-d][1,3,2]dioxaphosphinin-2-yl)oxy)methyl)benzoate] | – | – | – |
| substantially higher levels | CC(C)OC(=O)c1ccccc1COP1(=O)OC[C@H]2O[C@@H](n3ccc(=O)[nH]c3=O)[C@](C)(F)[C@@H]2O1 (stereo partly drawn) [Compound 107, Isopropyl 2-((((4aR,6R,7R,7aR)-6-(2,4-dioxo-3,4-dihydropyrimidin-1(2H)-yl)-7-fluoro-7-methyl-2-oxidotetrahydro-4H-furo[3,2-d][1,3,2]dioxaphosphinin-2-yl)oxy)methyl)benzoate] | – | – | – |
